Test results from patent publication US20240174662A1, “SMALL MOLECULE INHIBITORS OF SALT INDUCIBLE KINASES” (Janssen Biotech, Inc., priority 2021, published 2024).
pIC50: −log10 of the molar value. Several values for one entry are separate records, joined by “and”; a condition that tells them apart may be missing. Identical values can stand only once.

Molecular target: SIK2 (Homo sapiens (Human), UniProt Q9H0K1)
Assay: SIK2 Enzymatic Assay Version 2 (High ATP)
Type: biochemical
Conditions: 3 mM ATP and 200 μM HDAC5tide final, ADP-Glo Max luminescence
Method in brief: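 Run at room temperature; SIK2 enzyme at 6 nM (2× final) preincubated with compound 30 min before reaction. ADP formation detected by ADP-Glo Max (2 h reagent, 1 h detection) with luminescence read-out.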

Chain of SIK2 (Q9H0K1 whole entry, species assumed): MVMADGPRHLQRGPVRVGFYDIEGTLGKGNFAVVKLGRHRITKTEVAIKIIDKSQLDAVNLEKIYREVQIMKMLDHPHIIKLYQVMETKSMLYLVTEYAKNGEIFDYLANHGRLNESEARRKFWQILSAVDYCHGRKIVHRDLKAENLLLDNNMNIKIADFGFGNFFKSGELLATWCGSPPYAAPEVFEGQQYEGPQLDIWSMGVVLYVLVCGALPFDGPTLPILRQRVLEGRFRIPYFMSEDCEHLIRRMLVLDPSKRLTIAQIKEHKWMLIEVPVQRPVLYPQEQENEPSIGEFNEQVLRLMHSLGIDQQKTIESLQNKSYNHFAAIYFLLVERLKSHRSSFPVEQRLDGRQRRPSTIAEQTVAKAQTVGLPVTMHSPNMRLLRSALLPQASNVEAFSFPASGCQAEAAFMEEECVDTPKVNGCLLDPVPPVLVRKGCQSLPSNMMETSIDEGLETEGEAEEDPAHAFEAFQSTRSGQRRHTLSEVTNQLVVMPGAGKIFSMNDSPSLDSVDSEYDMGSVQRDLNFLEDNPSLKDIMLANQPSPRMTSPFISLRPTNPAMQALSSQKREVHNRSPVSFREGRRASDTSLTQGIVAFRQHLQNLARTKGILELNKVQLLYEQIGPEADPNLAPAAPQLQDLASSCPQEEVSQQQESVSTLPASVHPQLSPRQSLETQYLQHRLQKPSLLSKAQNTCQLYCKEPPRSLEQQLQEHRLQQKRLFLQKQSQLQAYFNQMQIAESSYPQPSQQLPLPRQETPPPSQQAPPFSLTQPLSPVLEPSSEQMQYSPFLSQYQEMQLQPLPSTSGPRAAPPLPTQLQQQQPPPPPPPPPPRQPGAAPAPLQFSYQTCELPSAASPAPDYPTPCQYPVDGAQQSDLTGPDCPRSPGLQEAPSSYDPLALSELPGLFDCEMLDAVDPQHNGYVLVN

| Compound | pIC50 |
| --- | --- |
| Cn1ncc(COC2(C(F)(F)F)CNC2)c1-c1ccn2nc(NC(=O)C3CC3)cc2c1 [Example 186, N-[5-[2-methyl-4-[[3-(trifluoromethyl)azetidin-3-yl]oxymethyl]pyrazol-3-yl]pyrazolo[1,5-a]pyridin-2-yl]cyclopropanecarboxamide] | 8.14 |
| CCN1CCC[C@@H]1COc1cnn(C)c1-c1ccn2nc(NC(=O)C3CC3)cc2c1 [Example 427, N-[5-[4-[[(2R)-1-ethylpyrrolidin-2-yl]methoxy]-2-methyl-pyrazol-3-yl]pyrazolo[1,5-a]pyridin-2-yl]cyclopropanecarboxamide] | 7.13 |
| Cc1cc(Nc2cc3cc(-c4c(OC[C@H](O)C5(C)CC5)cnn4C)ccn3n2)nc(C)n1 (single isomer, unassigned) [Example 356, (1*R)-2-[5-[2-[(2,6-dimethylpyrimidin-4-yl)amino]pyrazolo[1,5-a]pyridin-5-yl]-1-methyl-pyrazol-4-yl]oxy-1-(1-methylcyclopropyl)ethanol] | 7.23 |
| CN1CC[C@@H]1COc1cnn(C)c1-c1ccn2nc(Nc3cnc(C(F)(F)F)cn3)cc2c1 [Example 117, 5-[2-methyl-4-[[(2R)-1-methylazetidin-2-yl]methoxy]pyrazol-3-yl]-N-[5-(trifluoromethyl)pyrazin-2-yl]pyrazolo[1,5-a]pyridin-2-amine] | 8.06 |
| Cc1cncc(Nc2cc3cc(-c4c(OC[C@H]5CCN5)cnn4C)ccn3n2)n1 [Example 45, 5-[4-[[(2R)-azetidin-2-yl]methoxy]-2-methyl-pyrazol-3-yl]-N-(6-methylpyrazin-2-yl)pyrazolo[1,5-a]pyridin-2-amine] | 7.62 |
| Cc1cc(Nc2cc3cc(-c4c(OC[C@H]5CCN5C)cnn4C)ccn3n2)nc(CC2CC2)n1 [Example 153, N-[2-(cyclopropylmethyl)-6-methyl-pyrimidin-4-yl]-5-[2-methyl-4-[[(2R)-1-methylazetidin-2-yl]methoxy]pyrazol-3-yl]pyrazolo[1,5-a]pyridin-2-amine] | > 9.07 |
| Cn1ncc(OC[C@@H](N)c2ccccc2)c1-c1ccn2nc(NC(=O)C3CC3)cc2c1 [Example 235, N-[5-[4-[(2S)-2-amino-2-phenyl-ethoxy]-2-methyl-pyrazol-3-yl]pyrazolo[1,5-a]pyridin-2-yl]cyclopropanecarboxamide] | > 9.07 |
| CCN1CC[C@@H]1COc1cnn(C)c1-c1ccn2nc(Nc3ccc4nccn4n3)cc2c1 [Example 175, N-[5-[4-[[(2R)-1-ethylazetidin-2-yl]methoxy]-2-methyl-pyrazol-3-yl]pyrazolo[1,5-a]pyridin-2-yl]imidazo[1,2-b]pyridazin-6-amine] | > 9.07 |
| Cc1cc(Nc2cc3cc(-c4c(OC[C@@H]5CC6(CCC6)CO5)cnn4C)ccn3n2)nc(C)n1 (single isomer, unassigned) [Example 358, *S—N-(2,6-dimethylpyrimidin-4-yl)-5-[2-methyl-4-(7-oxaspiro[3.4]octan-6-ylmethoxy)pyrazol-3-yl]pyrazolo[1,5-a]pyridin-2-amine] | 7.27 |
| Cc1cc(Nc2cc3cc(-c4c(OC[C@@H]5CCN5C)cnn4C)ccn3n2)nc(C(F)(F)F)n1 [Example 308, 5-[2-methyl-4-[[(2S)-1-methylazetidin-2-yl]methoxy]pyrazol-3-yl]-N-[6-methyl-2-(trifluoromethyl)pyrimidin-4-yl]pyrazolo[1,5-a]pyridin-2-amine] | 7.82 |
| Cc1onc(OC[C@@H](N)c2ccccc2)c1-c1ccn2nc(NC(=O)C3CC3)cc2c1 [Example 31, N-[5-[3-[(2S)-2-amino-2-phenyl-ethoxy]-5-methyl-isoxazol-4-yl]pyrazolo[1,5-a]pyridin-2-yl]cyclopropanecarboxamide] | 9.00 |
| COC1(COc2cnn(C(F)F)c2-c2ccn3nc(Nc4cc(C)nc(C)n4)cc3c2)CCNC1 (racemic) [Example 100, (RS)-5-[2-(difluoromethyl)-4-[(3-methoxypyrrolidin-3-yl)methoxy]pyrazol-3-yl]-N-(2,6-dimethylpyrimidin-4-yl)pyrazolo[1,5-a]pyridin-2-amine] | 7.91 |
| Cn1ncc(OC[C@H]2CCN2CCOC(F)(F)F)c1-c1ccn2nc(NC(=O)C3CC3)cc2c1 [Example 431, N-[5-[2-methyl-4-[[(2R)-1-[2-(trifluoromethoxy)ethyl]azetidin-2-yl]methoxy]pyrazol-3-yl]pyrazolo[1,5-a]pyridin-2-yl]cyclopropanecarboxamide] | 6.74 |
| C[C@H]1CN(C)[C@@H]1COc1cnn(C)c1-c1ccn2nc(NC(=O)C3CC3)cc2c1 [Example 12, N-[5-[4-[[(2S,3S)-1,3-dimethylazetidin-2-yl]methoxy]-2-methyl-pyrazol-3-yl]pyrazolo[1,5-a]pyridin-2-yl]cyclopropanecarboxamide] | 6.93 |
| Cc1onc(O[C@H]2C[C@H]3C[C@@H]2CN3)c1-c1ccn2nc(NC(=O)C3CC3)cc2c1 (racemic) [Example 212, Exo-Rac-N-[5-[3-(2-azabicyclo[2.2.1]heptan-5-yloxy)-5-methyl-isoxazol-4-yl]pyrazolo[1,5-a]pyridin-2-yl]cyclopropanecarboxamide] | 7.33 |
| C[C@H](O)CN1CC[C@@H]1COc1cnn(C)c1-c1ccn2nc(NC(=O)C3CC3)cc2c1 [Example 253, N-[5-[4-[[(2R)-1-[(2S)-2-hydroxypropyl]azetidin-2-yl]methoxy]-2-methyl-pyrazol-3-yl]pyrazolo[1,5-a]pyridin-2-yl]cyclopropanecarboxamide] | 8.62 |
| CN1CC[C@H](Oc2cnn(C)c2-c2ccn3nc(Nc4ccc(C5CC5)nn4)cc3c2)C1 [Example 462, N-(6-cyclopropylpyridazin-3-yl)-5-[2-methyl-4-[(3S)-1-methylpyrrolidin-3-yl]oxy-pyrazol-3-yl]pyrazolo[1,5-a]pyridin-2-amine] | 7.06 |
| CCN1CC[C@@H]1COc1cnn(C)c1-c1ccn2nc(NC(=O)[C@@H]3C[C@H]3C)cc2c1 [Example 66, (1R,2R)—N-[5-[4-[[(2R)-1-ethylazetidin-2-yl]methoxy]-2-methyl-pyrazol-3-yl]pyrazolo[1,5-a]pyridin-2-yl]-2-methyl-cyclopropanecarboxamide] | 8.85 |
| Cn1ncc(OC[C@H]2NCC2(C)C)c1-c1ccn2nc(NC(=O)C3CC3)cc2c1 [Example 4, N-[5-[4-[[(2S)-3,3-dimethylazetidin-2-yl]methoxy]-2-methyl-pyrazol-3-yl]pyrazolo[1,5-a]pyridin-2-yl]cyclopropanecarboxamide] | 8.12 |
| Cc1onc(OC[C@@H]2CCCNC2)c1-c1ccn2nc(NC(=O)C3CC3)cc2c1 [Example 383, N-[5-[5-methyl-3-[[(3R)-3-piperidyl]methoxy]isoxazol-4-yl]pyrazolo[1,5-a]pyridin-2-yl]cyclopropanecarboxamide] | 7.05 |
| CN1CC[C@@H](COc2cnn(C)c2-c2ccn3nc(NC(=O)C4CC4)cc3c2)C1 [Example 396, N-[5-[2-methyl-4-[[(3R)-1-methylpyrrolidin-3-yl]methoxy]pyrazol-3-yl]pyrazolo[1,5-a]pyridin-2-yl]cyclopropanecarboxamide] | 7.22 and 7.03 |
| CN1C[C@@H](COc2cnn(C)c2-c2ccn3nc(NC(=O)C4CC4)cc3c2)[C@H](O)C1 [Example 417, N-[5-[4-[[(3S,4S)-4-hydroxy-1-methyl-pyrrolidin-3-yl]methoxy]-2-methyl-pyrazol-3-yl]pyrazolo[1,5-a]pyridin-2-yl]cyclopropanecarboxamide] | 6.89 |
